Read-outs that look alike come from different tables or passages of the source.
Molecular target: T1, heparinase I (heparin lyase I) of Flavobacterium heparinum, native purified (chromatofocused) enzyme, SEQ ID NO: 2 (Pedobacter heparinus, UniProt Q05819)
T1 construct: mature heparinase I from F. heparinum contains two free cysteines and not a disulfide bridge; made in house; host or cells: Flavobacterium heparinum (native enzyme purified from cell extract: hydroxyapatite, QAE-Sephadex, chromatofocusing)
Test: Inactivation of heparinase I activity by sulfhydryl-specific reagents
Format: biochemical
Conditions: for inactivation rate constant / inactivation time constant τ: PCMB; for inactivation time constant τ: pseudo first order fit; for time to complete inactivation: PBS; for inactivation rate: 500 mM iodoacetic acid
Experimental: Purification of heparinase I: Lyophilized powdered extracts of F. heparinum were prepared according to the method of Yang et al. (1985). Partially purified heparinase I was prepare by step gradient elution of powdered cell extracts from a hydroxyapatite column followed by reverse adsorption on a QAE-Sephadex column Further purification of the enzyme was accomplished with a chromatofocusing, 1 cm×18 cm column with PBE resin (Pharmacia). A 1.5-2.5 ml aliquot of protein (0.5-1.5 mg) in 0.01 M phosphate (pH 6.8) was applied to the column equilibrated with 0.025 M ethanolamine (pH 9.4 with acetic acid). Elution was carried out with 150 ml of 10% Polybuffer 96 (pH 6.0 with acetic acid). […] Fractions (1.5-2.0 ml) were collected in tubes containing 0.2 ml of 0.5 M phosphate buffer at pH 6.8. Immediately after collection, the fractions were assayed for heparinase I activity. […] The active fractions were pooled, and NaCl was added from a 2.0 M aqueous solution to give a final concentration of 0.1 M. Heparinase I was concentrated and equilibrated with a buffer consisting of 0.01 M NaH2 PO4 and 0.1 M NaCl at pH 6.8 (PBS) with Centricon P-30 microconcentrators (Amicon, Mass.).
Modification with Organomercurials: The reversible, sulfhydryl specific anion, PCMB, was utilized to determine the effects of sulfhydryl modification on heparinase I activity. […] The time course of inactivation in the presence and absence of heparin also was determined.
At =Ao exp(-t/.tau.)+A.infin.
where At is the fractional activity at time t, Ao is the initial factional activity, A.infin. is the residual activity at infinite time, and .tau. is the inactivation time constant in minutes or the reciprocal rate constant. Time constants were obtained by a nonlinear least squares fit of the data to the equation.
The effect of NEM modification on heparinase I activity was examined in an attempt to elucidate structural influences on the cysteine reactivities.
In order to ascertain whether significant levels of NEM bind heparinase I, labeling studies with [^3 H]NEM were undertaken.

T1 sequence (Q05819 22-384): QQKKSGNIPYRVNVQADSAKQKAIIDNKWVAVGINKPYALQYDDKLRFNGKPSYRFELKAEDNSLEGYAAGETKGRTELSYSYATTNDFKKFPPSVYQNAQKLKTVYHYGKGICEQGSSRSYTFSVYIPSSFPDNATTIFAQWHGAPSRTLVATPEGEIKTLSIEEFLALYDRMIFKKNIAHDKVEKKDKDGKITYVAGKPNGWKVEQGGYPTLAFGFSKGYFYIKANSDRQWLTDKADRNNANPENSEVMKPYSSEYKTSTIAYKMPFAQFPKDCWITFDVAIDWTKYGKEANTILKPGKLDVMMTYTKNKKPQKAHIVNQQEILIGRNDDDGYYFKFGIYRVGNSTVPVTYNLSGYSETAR

CCN1C(=O)C=CC1=O [NEM, N-ethylmaleimide]
inhibition at 1000 µM (1 mM NEM overnight at 4° C., read-out: activity loss): ~15% | change in activity (1 mM NEM, pH 7.0, over an 8 h period): little change in activity | inhibition at 1000 µM (1 mM [3H]NEM, non-denatured enzyme, 20 h, read-out: loss of activity): 15% | inhibition at 10000 µM (0.75 h, 10 mM NEM, pH 7.0, 4° C., within 45 min, read-out: enzymatic activity lost): 15%

O=C(O)c1cc[c]([Hg][Cl])cc1 [PCMB]
reversible loss of enzyme activity (PCMB at 2.5-100 μM, 4° C.): 95±5% | inactivation rate constant (0.0 mg/ml heparin): 1.2 min⁻¹ | inactivation rate constant (0.5 mg/ml heparin): 0.2 min⁻¹ | inactivation time constant τ (absence of heparin): 0.8 ± 1 min | inactivation time constant τ (presence of 0.5 mg/ml heparin): 5 ± 1 min

NC(=O)CI [iodoacetamide]
inhibition at 120000 µM (120 mM iodoacetamide, 24 h incubation, PBS pH 7.0, 4° C.): 15% | change in activity (2, 5, 10 and 120 mM iodoacetamide in PBS, pH 7.0, 4° C., up to 24 h): little change in activity

O=C(O)CI [iodoacetic acid]
time to complete inactivation (0.1 mM iodoacetic acid, 4° C.): ≤ 15 h | time to complete inactivation (1 mM iodoacetic acid, 4° C.): ≤ 0.25 h | inactivation rate (no heparin): 3±1×10^-3 h^-1 | inactivation rate (presence of 2 mg/ml heparin): 5±2×10^-4 h^-1 | inhibition at 2000 µM (10 min, 2 mM iodoacetic acid in PBS, 4° C., within 10 min, read-out: heparinase I inactivated): 95 ± 5% | retention of activity relative to untreated heparinase I (iodoacetic acid treated enzyme (heparin protection experiment)): 15±5%
